What all share (assay type): cell-based
The target in one series is T1, mOATP1B2 (Mus musculus, UniProt Q9JJL3).
T1 construct: The full-length mOATP1B2 and rOATP1B2 consist of 689 and 678 amino acids
T1 sequence (Q9JJL3 1-689): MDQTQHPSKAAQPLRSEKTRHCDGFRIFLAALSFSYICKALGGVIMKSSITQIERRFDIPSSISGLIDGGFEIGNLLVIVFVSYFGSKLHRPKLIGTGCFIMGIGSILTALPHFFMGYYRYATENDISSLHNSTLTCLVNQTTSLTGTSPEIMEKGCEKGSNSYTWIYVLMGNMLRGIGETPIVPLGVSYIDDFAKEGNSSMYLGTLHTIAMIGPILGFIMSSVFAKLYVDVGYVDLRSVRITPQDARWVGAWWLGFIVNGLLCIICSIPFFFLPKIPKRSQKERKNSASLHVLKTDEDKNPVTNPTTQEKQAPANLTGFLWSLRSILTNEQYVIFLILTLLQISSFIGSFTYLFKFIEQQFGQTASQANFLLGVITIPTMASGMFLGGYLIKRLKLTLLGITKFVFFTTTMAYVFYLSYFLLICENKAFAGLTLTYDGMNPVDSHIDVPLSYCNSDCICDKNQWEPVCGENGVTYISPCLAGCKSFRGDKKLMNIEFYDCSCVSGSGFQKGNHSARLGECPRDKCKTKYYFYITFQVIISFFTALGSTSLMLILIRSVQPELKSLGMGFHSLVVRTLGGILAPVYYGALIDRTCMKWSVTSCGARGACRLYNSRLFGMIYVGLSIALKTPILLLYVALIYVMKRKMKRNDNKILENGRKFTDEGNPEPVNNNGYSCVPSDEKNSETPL
Briefly: cis-inhibition of mOATP1B2-mediated E1S or TCA uptake in HEK293 cells. Here is the method: Inhibition experiments with mOATP1B2 and rOATP2B1 were carried out in triplicate as cis-inhibition. […] Inhibitory effects were calculated as a percentage of the net-uptake rates. […] The means ± average deviation (AD, for N = 2) were calculated from two experiments on two different days. The significance as a p-value was calculated using Student's t-test in Microsoft Excel.

The next series addresses T2, rOATP1B2 (Rattus norvegicus, UniProt Q9QZX8).
T2 construct: The full-length mOATP1B2 and rOATP1B2 consist of 689 and 678 amino acids
T2 sequence (Q9QZX8 1-687): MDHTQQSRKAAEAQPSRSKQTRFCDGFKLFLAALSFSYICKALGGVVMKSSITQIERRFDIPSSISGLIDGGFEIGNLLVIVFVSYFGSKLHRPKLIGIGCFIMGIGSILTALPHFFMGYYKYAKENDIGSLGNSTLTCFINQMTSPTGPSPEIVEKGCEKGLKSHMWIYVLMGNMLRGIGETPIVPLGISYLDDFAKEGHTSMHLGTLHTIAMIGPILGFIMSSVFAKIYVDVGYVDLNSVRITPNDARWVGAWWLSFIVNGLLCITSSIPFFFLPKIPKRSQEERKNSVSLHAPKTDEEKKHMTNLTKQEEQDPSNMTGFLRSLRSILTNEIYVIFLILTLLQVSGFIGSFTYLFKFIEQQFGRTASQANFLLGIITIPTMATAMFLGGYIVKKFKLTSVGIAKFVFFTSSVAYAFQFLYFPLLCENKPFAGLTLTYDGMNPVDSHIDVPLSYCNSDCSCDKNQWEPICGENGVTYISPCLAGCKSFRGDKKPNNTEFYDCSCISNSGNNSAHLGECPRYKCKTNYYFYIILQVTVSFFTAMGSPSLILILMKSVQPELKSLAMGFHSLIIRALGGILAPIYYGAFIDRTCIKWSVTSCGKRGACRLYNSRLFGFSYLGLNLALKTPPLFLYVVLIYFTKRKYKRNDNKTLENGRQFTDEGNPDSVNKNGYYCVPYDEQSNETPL
Briefly: cis-inhibition of rOATP1B2-mediated E1S or TCA uptake in HEK293 cells.

The target in the next series is T3, hOATP1B3 (Homo sapiens, UniProt Q9NPD5).
T3 sequence (Q9NPD5 1-702): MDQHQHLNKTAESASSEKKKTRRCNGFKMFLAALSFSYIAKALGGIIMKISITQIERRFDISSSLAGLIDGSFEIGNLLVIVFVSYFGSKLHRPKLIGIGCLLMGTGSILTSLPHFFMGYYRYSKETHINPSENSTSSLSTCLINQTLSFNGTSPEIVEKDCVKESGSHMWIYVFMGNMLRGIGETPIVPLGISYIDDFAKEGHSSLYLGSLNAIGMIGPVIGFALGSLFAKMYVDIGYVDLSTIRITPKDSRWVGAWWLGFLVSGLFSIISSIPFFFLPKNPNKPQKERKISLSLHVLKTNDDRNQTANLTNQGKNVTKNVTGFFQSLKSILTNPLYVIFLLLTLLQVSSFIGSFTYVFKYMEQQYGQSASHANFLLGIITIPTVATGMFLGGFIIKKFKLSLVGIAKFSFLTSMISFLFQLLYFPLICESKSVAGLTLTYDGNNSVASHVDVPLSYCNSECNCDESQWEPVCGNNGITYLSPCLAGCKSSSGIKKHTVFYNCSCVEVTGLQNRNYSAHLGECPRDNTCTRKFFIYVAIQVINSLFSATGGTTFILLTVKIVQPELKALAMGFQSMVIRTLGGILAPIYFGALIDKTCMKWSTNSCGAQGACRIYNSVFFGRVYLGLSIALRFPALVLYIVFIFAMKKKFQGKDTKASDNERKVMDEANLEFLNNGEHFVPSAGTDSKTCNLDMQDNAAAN
Briefly: cis-inhibition of hOATP1B3-mediated TCA uptake in HEK293 cells. Also noted: expressed in transfected cells; host or cells: HEK-293, stably transfected. Particulars: 10 µM drug; for Inhibitory effect on hOATP1B3-mediated TCA uptake: 1 µM TCA, 10 min; for inhibition at 10 min, 10 µM: human, HEK293 cells expressing hOATP1B3, probe 1 µM TCA (containing 0.01 µM [3H]-TCA), Inhibitory effect on hOATP1B3-mediated TCA uptake. On the procedure:
Inhibitory effects were calculated as a percentage of the net-uptake rates.
The means ± average deviation (AD, for N = 2) were calculated from two experiments on two different days. The significance as a p-value was calculated using Student’s t-test in Microsoft Excel.

Where [1] appears, read: 10 µM drug, substrates E1S and TCA not separated.
Setting [2] is: HEK293, 10 µM drug, 1 µM [3H]-E1S, 1 min, read-out: Inhibitory effect on mOATP1B2-mediated E1S uptake.
[3] abbreviates: HEK293, read-out: Inhibitory effect on mOATP1B2-mediated TCA uptake, 10 µM drug, 1 µM [3H]-TCA, 1 min.
[4] abbreviates: HEK293, 10 µM drug, 1 µM [3H]-E1S, 1 min, read-out: Inhibitory effect on rOATP1B2-mediated E1S uptake.
[5] abbreviates: HEK293, read-out: Inhibitory effect on rOATP1B2-mediated TCA uptake, 10 µM drug, 1 µM [3H]-TCA, 1 min.
The mark [6] stands for this setting: HEK293, read-out: Inhibitory effect on mOATP1B2-mediated substrate uptake (summary over E1S and TCA), 10 µM drug, substrates E1S and TCA not separated.
[7] abbreviates: HEK293, read-out: Inhibitory effect on rOATP1B2-mediated substrate uptake (summary over E1S and TCA), 10 µM drug, substrates E1S and TCA not separated.

“Also recorded” adds a separate entry of the source. Like-named read-outs stand apart in the source and are kept apart here. Some results are limits rather than exact numbers.

The term IC50 denotes the concentration that gives 50% inhibition.

As for `Clc1ccccc1C(c1ccccc1)(c1ccccc1)n1ccnc1` [Clotrimazole, clotrimazole], the “Inhibitory effect on mOATP1B2-mediated substrate uptake (summary over E1S and TCA)” value at mOATP1B2 (setting [1]) was “no inhibitory properties; also recorded: did not inhibit”. Also, the inhibition at 10 µM was 6% on mOATP1B2 (setting [2]), -2% at mOATP1B2 (setting [3]), -10% at rOATP1B2 (setting [4]) and -10% at rOATP1B2 (setting [5]). Moreover, the “Inhibitory effect on rOATP1B2-mediated substrate uptake (summary over E1S and TCA)” value at rOATP1B2 (setting [1]) is “no inhibitory properties; also recorded: did not inhibit”. Further, the “Inhibitory effect on hOATP1B3-mediated TCA uptake” value at hOATP1B3 is listed as “did not inhibit”. The inhibition at 10 min, 10 µM on hOATP1B3 is -44%.
Regarding `CC(C)c1nc(N(C)S(C)(=O)=O)nc(-c2ccc(F)cc2)c1/C=C/[C@@H](O)C[C@@H](O)CC(=O)O` [Rosuvastatin, rosuvastatin], the inhibition at 10 µM at mOATP1B2 (setting [2]) was 50%; at mOATP1B2 (setting [3]), 52%; at mOATP1B2 (setting [6]), at least 50%; on rOATP1B2 (setting [4]) it was 73%; at rOATP1B2 (setting [5]) it was 69%; at rOATP1B2 (setting [7]), at least 50%. At hOATP1B3, the inhibition at 10 min, 10 µM came to 24%.
As for `CC(=O)N1CCN(c2ccc(OCC3COC(Cn4ccnc4)(c4ccc(Cl)cc4Cl)O3)cc2)CC1` (stereo not shown) [Ketoconazole, ketoconazole], the inhibition at 10 µM was 41% at mOATP1B2 (setting [2]); 29% at mOATP1B2 (setting [3]); below 50% on mOATP1B2 (setting [6]); 34% on rOATP1B2 (setting [4]); 19% on rOATP1B2 (setting [5]); below 50% on rOATP1B2 (setting [7]). Further, the “Inhibitory effect on hOATP1B3-mediated TCA uptake” value on hOATP1B3 is recorded as 23%; at hOATP1B3 (listed as ketoconazole), “less than 50%”.
In the case of `CO[C@H]1/C=C/O[C@@]2(C)Oc3c(C)c(O)c4c(O)c(c(/C=N/N5CCN(C)CC5)c(O)c4c3C2=O)NC(=O)/C(C)=C\C=C\[C@H](C)[C@H](O)[C@@H](C)[C@@H](O)[C@@H](C)[C@H](OC(C)=O)[C@@H]1C` [Rifampicin, rifampicin], the IC50 was determined as 9.6 µM on mOATP1B2 (1 µM [3H]-E1S, 1 min, read-out: IC50, mOATP1B2-mediated E1S uptake); 7.7 µM against mOATP1B2 (IC50, mOATP1B2-mediated TCA uptake, 1 µM [3H]-TCA, 1 min); 1.1 µM on rOATP1B2 (1 µM [3H]-E1S, 1 min, read-out: IC50, rOATP1B2-mediated E1S uptake); 2.4 µM at rOATP1B2 (IC50, rOATP1B2-mediated TCA uptake, 1 µM [3H]-TCA, 1 min). The “difference in inhibition between mOATP1B2 and rOATP1B2” value at mOATP1B2 (10 µM drug) is above 30%. Besides, the inhibition at 10 µM is 44% at mOATP1B2 (setting [2]); 53% on mOATP1B2 (setting [3]); at least 50% on mOATP1B2 (setting [6]); 93% on rOATP1B2 (setting [4]); 83% at rOATP1B2 (setting [5]). In addition, the “fold difference of IC50 between mOATP1B2 and rOATP1B2 (stronger inhibition of rOATP1B2)” value at rOATP1B2 (E1S uptake) came to 8.7 fold. Further, at rOATP1B2 (TCA uptake), the “fold difference of IC50 between mOATP1B2 and rOATP1B2” value was 3.2 fold. The inhibition at 10 min, 10 µM at hOATP1B3 was determined as 104%.
As for `CCCCC1(CCCC)CN(c2ccccc2)c2cc(SC)c(OCC(=O)N[C@@H](C(=O)N[C@@H](CC)C(=O)O)c3ccc(O)cc3)cc2S(=O)(=O)N1` [Odevixibat, odevixibat], the inhibition at 10 µM on mOATP1B2 (setting [2]) is 69%; on mOATP1B2 (setting [3]), 54%; at mOATP1B2 (setting [6]), 54 to 82%; on rOATP1B2 (setting [4]) it was 82%; on rOATP1B2 (setting [5]) it was 74%; at rOATP1B2 (setting [7]) it was 54 to 82%. The “Inhibitory effect on hOATP1B3-mediated TCA uptake” value on hOATP1B3 is “completely inhibited; also recorded: complete inhibition”. For the same compound, at hOATP1B3, the inhibition at 10 min, 10 µM turned out to be 102%.
Consider `CC(C)CN(C[C@@H](O)[C@H](Cc1ccccc1)NC(=O)O[C@H]1CCOC1)S(=O)(=O)c1ccc(N)cc1` [Amprenavir, amprenavir], for which the inhibition at 10 µM on mOATP1B2 (setting [2]) is 12%; at mOATP1B2 (setting [3]), 32%; at mOATP1B2 (setting [6]) it was below 50%; on rOATP1B2 (setting [4]), 21%; on rOATP1B2 (setting [5]), 27%; on rOATP1B2 (setting [7]) it was below 50%. Besides, the “Inhibitory effect on hOATP1B3-mediated TCA uptake” value on hOATP1B3 was 21%; at hOATP1B3 (listed as amprenavir), “less than 50%”.

Values taken from publication PMC12846068, “Insights into Transport Function of the Murine Organic Anion-Transporting Polypeptide OATP1B2 by Comparison with Its Rat and Human Orthologues” (Toxics, 2025).
